pEC50: −log10 of the molar value. Like-named read-outs stand apart in the source and are kept apart here.
Legend:
[1] = molecular target: human somatostatin receptor subtype 5 (Homo sapiens, UniProt P35346); assay: cAMP assay for SST5R (inhibition of cAMP via human SST5 receptor); settings: for Fold selectivity for SST5 vs SST2: SST5 over SST2, class symbols
[2] = molecular target: T1, human somatostatin receptor subtype 2 (Homo sapiens, UniProt P30874); assay: cAMP assay for SST2R (inhibition of cAMP via human SST2 receptor); format: cell-based; settings: Table B, read-out: SST2 potency
T1 construct: expressed in transfected cells
T1 sequence (P30874 whole entry): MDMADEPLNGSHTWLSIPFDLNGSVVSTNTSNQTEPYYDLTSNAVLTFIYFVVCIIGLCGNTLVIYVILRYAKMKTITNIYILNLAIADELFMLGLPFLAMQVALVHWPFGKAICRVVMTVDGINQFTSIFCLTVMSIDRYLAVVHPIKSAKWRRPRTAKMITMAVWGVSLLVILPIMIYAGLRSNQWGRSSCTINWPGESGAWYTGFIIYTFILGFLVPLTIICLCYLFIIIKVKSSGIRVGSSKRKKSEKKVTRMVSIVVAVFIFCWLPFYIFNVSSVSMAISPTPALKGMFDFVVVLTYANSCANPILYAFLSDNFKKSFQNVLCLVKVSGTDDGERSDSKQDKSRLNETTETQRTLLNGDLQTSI
Source text: cAMP Assay Protocol for SST2R:

[3] = read-out: SST5 potency, inhibition of cAMP via human SST5 receptor, Table B

Sequence of human somatostatin receptor subtype 5 (P35346 whole entry): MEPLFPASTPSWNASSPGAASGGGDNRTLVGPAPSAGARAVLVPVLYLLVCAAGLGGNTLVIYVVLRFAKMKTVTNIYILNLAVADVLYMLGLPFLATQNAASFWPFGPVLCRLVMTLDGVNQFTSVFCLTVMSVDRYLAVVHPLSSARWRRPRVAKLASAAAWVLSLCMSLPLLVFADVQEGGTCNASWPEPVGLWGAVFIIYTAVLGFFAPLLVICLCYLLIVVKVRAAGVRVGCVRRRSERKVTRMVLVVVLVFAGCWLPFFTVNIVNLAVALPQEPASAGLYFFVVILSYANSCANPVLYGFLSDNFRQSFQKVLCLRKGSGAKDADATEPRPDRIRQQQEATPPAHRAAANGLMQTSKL

Row | pEC50 [1] | Fold selectivity for SST5 vs SST2 [1] | pEC50 [1, 3] | pEC50 [2] | SMILES
1 | 7.00 to 8.00 | +++ (+++=≥500) | 7.00 to 8.00 | < 6.00 | Cc1cc(F)cc(-c2cncc(-c3nc4cccc(C#N)c4[nH]3)c2N2CC(CN)C2)c1 [Compound 1-5, 2-{4-[3-(aminomethyl)azetidin-1-yl]-5-(3-fluoro-5-methylphenyl)pyridin-3-yl}-1H-1,3-benzodiazole-4-carbonitrile]
2 | > 8.00 | +++ (+++=≥500) | > 8.00 | < 6.00 | Cc1cc(F)cc(-c2cncc(-c3nc4c(F)cc(F)cc4[nH]3)c2N2CC(CN)C2)c1 [Compound 1-7, 1-{1-[3-(4,6-difluoro-1H-1,3-benzodiazol-2-yl)-5-(3-fluoro-5-methylphenyl)pyridin-4-yl]azetidin-3-yl}methanamine]
3 | > 8.00 | +++ (+++=≥500) | > 8.00 | < 6.00 | Cc1cc(F)cc(-c2cncc(-c3nc4cccc(C)c4[nH]3)c2N2CC(CN)C2)c1 [Compound 1-9, 1-{1-[3-(3-fluoro-5-methylphenyl)-5-(4-methyl-1H-1,3-benzodiazol-2-yl)pyridin-4-yl]azetidin-3-yl}methanamine]
4 | > 8.00 | +++ (+++=≥500) | > 8.00 | < 6.00 | Cc1cc(F)cc(-c2cncc(-c3nc4cc(C)ccc4[nH]3)c2N2CC(CN)C2)c1 [Compound 1-10, 1-{1-[3-(3-fluoro-5-methylphenyl)-5-(5-methyl-1H-1,3-benzodiazol-2-yl)pyridin-4-yl]azetidin-3-yl}methanamine]
5 | > 8.00 | +++ (+++=≥500) | > 8.00 | < 6.00 | Cc1cc(F)cc(-c2cncc(-c3nc4c(F)ccc(F)c4[nH]3)c2N2CC(CN)C2)c1 [Compound 1-37, 1-{1-[3-(4,7-difluoro-1H-1,3-benzodiazol-2-yl)-5-(3-fluoro-5-methylphenyl)pyridin-4-yl]azetidin-3-yl}methanamine]
6 | > 8.00 | +++ (+++=≥500) | > 8.00 | < 6.00 | NCC1CN(c2c(-c3cc(F)cc(Cl)c3)cncc2-c2nc3cc(F)cc(F)c3[nH]2)C1 [Compound 1-39, 1-{1-[3-(3-chloro-5-fluorophenyl)-5-(4,6-difluoro-1H-1,3-benzodiazol-2-yl)pyridin-4-yl]azetidin-3-yl}methanamine]
7 | > 8.00 | +++ (+++=≥500) | > 8.00 | < 6.00 | CC(N)C1(C)CN(c2c(-c3cccc(F)c3)cncc2-c2nc3cc(F)cc(F)c3[nH]2)C1 (centres unmarked) [Compound 1-68, 1-{1-[3-(4,6-difluoro-1H-1,3-benzodiazol-2-yl)-5-(3-fluorophenyl)pyridin-4-yl]-3-methylazetidin-3-yl}ethan-1-amine]
8 | > 8.00 | +++ (+++=≥500) | > 8.00 | < 6.00 | CC(N)C1(C)CN(c2c(-c3cccc(C(F)(F)F)c3)cncc2-c2nc3cc(F)cc(F)c3[nH]2)C1 (centres unmarked) [Compound 1-69, 1-{1-[3-(4,6-difluoro-1H-1,3-benzodiazol-2-yl)-5-[3-(trifluoromethyl)phenyl]pyridin-4-yl]-3-methylazetidin-3-yl}ethan-1-amine]
9 | > 8.00 | +++ (+++=≥500) | > 8.00 | < 6.00 | CC(N)C1(C)CN(c2c(-c3cccc(C#N)c3)cncc2-c2nc3cc(F)cc(F)c3[nH]2)C1 (centres unmarked) [Compound 1-70, 3-{4-[3-(1-aminoethyl)-3-methylazetidin-1-yl]-5-(4,6-difluoro-1H-1,3-benzodiazol-2-yl)pyridin-3-yl}benzonitrile]
10 | – | +++ (+++=≥500) | > 8.00 | < 6.00 | CC(N)C1CN(c2c(-c3cc(F)cc(C(F)(F)F)c3)cncc2-c2nc3cc(F)cc(F)c3[nH]2)C1 (centres unmarked) [Compound 1-71, 1-{1-[3-(4,6-difluoro-1H-1,3-benzodiazol-2-yl)-5-[3-fluoro-5-(trifluoromethyl)phenyl]pyridin-4-yl]azetidin-3-yl}ethan-1-amine]
11 | > 8.00 | ++ (++=100 to 499) | > 8.00 | 7.00 to 8.00 | CC1(N)CCN(c2c(-c3cc(F)cc(Cl)c3)cncc2-c2nc3cccc(F)c3[nH]2)C1 (centres unmarked) [Compound 2-4, 1-[3-(3-chloro-5-fluorophenyl)-5-(4-fluoro-1H-1,3-benzodiazol-2-yl)pyridin-4-yl]-3-methylpyrrolidin-3-amine]
12 | > 8.00 | +++ (+++=≥500) | > 8.00 | 6.00 to 7.00 | CC1(N)CCN(c2c(-c3cc(F)cc(C#N)c3)cncc2-c2nc3cccc(F)c3[nH]2)C1 (centres unmarked) [Compound 2-6, 3-[4-(3-amino-3-methylpyrrolidin-1-yl)-5-(4-fluoro-1H-1,3-benzodiazol-2-yl)pyridin-3-yl]-5-fluorobenzonitrile]
13 | > 8.00 | +++ (+++=≥500) | > 8.00 | 6.00 to 7.00 | N#Cc1cccc(-c2cncc(-c3nc4cccc(F)c4[nH]3)c2N2CC[C@H](N)C2)c1 [Compound 2-7, 3-{4-[(3S)-3-aminopyrrolidin-1-yl]-5-(4-fluoro-1H-1,3-benzodiazol-2-yl)pyridin-3-yl}benzonitrile]
14 | > 8.00 | +++ (+++=≥500) | > 8.00 | 6.00 to 7.00 | CC1(N)CCN(c2c(-c3cccc(OC(F)(F)F)c3)cncc2-c2nc3cccc(F)c3[nH]2)C1 (centres unmarked) [Compound 2-10, 1-[3-(4-fluoro-1H-1,3-benzodiazol-2-yl)-5-[3-(trifluoromethoxy)phenyl]pyridin-4-yl]-3-methylpyrrolidin-3-amine]
15 | > 8.00 | +++ (+++=≥500) | > 8.00 | 6.00 to 7.00 | CC1(N)CCN(c2c(-c3cccc(C#N)c3)cncc2-c2nc3cccc(F)c3[nH]2)C1 (centres unmarked) [Compound 2-13, 3-[4-(3-amino-3-methylpyrrolidin-1-yl)-5-(4-fluoro-1H-1,3-benzodiazol-2-yl)pyridin-3-yl]benzonitrile]
16 | > 8.00 | +++ (+++=≥500) | > 8.00 | < 6.00 | CC1(N)CCN(c2c(-c3cccc(C(N)=O)c3)cncc2-c2nc3c(F)cccc3[nH]2)C1 (centres unmarked) [Compound 2-18, 3-[4-(3-amino-3-methylpyrrolidin-1-yl)-5-(4-fluoro-1H-1,3-benzodiazol-2-yl)pyridin-3-yl]benzamide]
17 | > 8.00 | +++ (+++=≥500) | > 8.00 | 6.00 to 7.00 | CC1(N)CCN(c2c(-c3cc(F)cc(C(N)=O)c3)cncc2-c2nc3cccc(F)c3[nH]2)C1 (centres unmarked) [Compound 2-20, 3-[4-(3-amino-3-methylpyrrolidin-1-yl)-5-(4-fluoro-1H-1,3-benzodiazol-2-yl)pyridin-3-yl]-5-fluorobenzamide]
18 | > 8.00 | +++ (+++=≥500) | > 8.00 | < 6.00 | CC1(N)CCN(c2c(-c3cccc(S(C)(=O)=O)c3)cncc2-c2nc3cccc(F)c3[nH]2)C1 (centres unmarked) [Compound 2-21, 1-[3-(4-fluoro-1H-1,3-benzodiazol-2-yl)-5-(3-methanesulfonylphenyl)pyridin-4-yl]-3-methylpyrrolidin-3-amine]
19 | > 8.00 | ++ (++=100 to 499) | > 8.00 | 6.00 to 7.00 | CC1(N)CCN(c2c(-c3ccc4c(c3)OCC4)cncc2-c2nc3cccc(F)c3[nH]2)C1 (centres unmarked) [Compound 2-22, 1-[3-(2,3-dihydro-1-benzofuran-6-yl)-5-(4-fluoro-1H-1,3-benzodiazol-2-yl)pyridin-4-yl]-3-methylpyrrolidin-3-amine]
20 | > 8.00 | +++ (+++=≥500) | > 8.00 | 6.00 to 7.00 | N#Cc1cc(-c2cncc(-c3nc4cccc(F)c4[nH]3)c2N2CC[C@H](N)C2)ccc1F [Compound 2-23, 5-{4-[(3S)-3-aminopyrrolidin-1-yl]-5-(4-fluoro-1H-1,3-benzodiazol-2-yl)pyridin-3-yl}-2-fluorobenzonitrile]
21 | > 8.00 | ++ (++=100 to 499) | > 8.00 | 6.00 to 7.00 | N#Cc1ccc(-c2cncc(-c3nc4cccc(F)c4[nH]3)c2N2CC[C@H](N)C2)s1 [Compound 2-26, 5-{4-[(3S)-3-aminopyrrolidin-1-yl]-5-(4-fluoro-1H-1,3-benzodiazol-2-yl)pyridin-3-yl}thiophene-2-carbonitrile]
22 | > 8.00 | ++ (++=100 to 499) | > 8.00 | 6.00 to 7.00 | CC1(N)CCN(c2c(-c3cc(F)cc(OCC#N)c3)cncc2-c2nc3cccc(F)c3[nH]2)C1 (centres unmarked) [Compound 2-27, 2-{3-[4-(3-amino-3-methylpyrrolidin-1-yl)-5-(4-fluoro-1H-1,3-benzodiazol-2-yl)pyridin-3-yl]-5-fluorophenoxy}acetonitrile]
23 | > 8.00 | ++ (++=100 to 499) | > 8.00 | 7.00 to 8.00 | CC1(N)CCN(c2c(-c3cccc(Cl)c3)cncc2-c2nc3cccc(F)c3[nH]2)C1 (centres unmarked) [Compound 2-28, 1-[3-(3-chlorophenyl)-5-(4-fluoro-1H-1,3-benzodiazol-2-yl)pyridin-4-yl]-3-methylpyrrolidin-3-amine]
24 | > 8.00 | + (+=10 to 99) | > 8.00 | 6.00 to 7.00 | CC1(N)CCN(c2c(-c3ccc4cc[nH]c4c3)cncc2-c2nc3cccc(F)c3[nH]2)C1 (centres unmarked) [Compound 2-29, 1-[3-(4-fluoro-1H-1,3-benzodiazol-2-yl)-5-(1H-indol-6-yl)pyridin-4-yl]-3-methylpyrrolidin-3-amine]

Reference: patent US11608335B2, “Somatostatin modulators and uses thereof” (CRINETICS PHARMACEUTICALS, INC., priority 2018, dated 2023)
